Data from paper PMC10363981, “Optimizing the enzymatic release of MMAE from isoDGR-based small molecule drug conjugate by incorporation of a GPLG-PABC enzymatically cleavable linker” (Frontiers in Pharmacology, 2023).

Tests used:
[1] = tested on: SK-MEL-28 human melanoma cells; assay: In vitro antiproliferative activity, MTT, 72 h continuous treatment (no-washout); format: cell-based
Protocol: (§1) U87MG human malignant glioma, SK-MEL-28 human melanoma, SK-OV-3 human ovarian cancer, and A549 human lung cancer cell lines were purchased from ATCC. The cells were cultured in Dulbecco’s Modified Eagle’s Medium (DMEM; Biosera, Nuaille, France), supplemented with 10% heat-inactivated Fetal Bovine Serum (FBS; Biosera), and with 1% Penicillin/Streptomycin (Biosera). Cells were cultured in sterile T75 flasks with ventilation cap (Sarstedt, Nümbrecht, Germany) at 37 °C in a humidified atmosphere with 5% CO2 in ESCO CelCulture Incubator (ESCO, Friedberg, Germany). Manipulations with the cells were performed in biosafety cabinet (laminar) ESCO Sentinel Gold class II model AC2-4E8 (ESCO).
(§2) After standard trypsinization and harvesting cells by trypsin (Biosera), ethylenediaminetetraacetic acid (EDTA; Biosera) and PBS solution, 6×10^3 cells per well were seeded in serum containing (10%) growth medium to 96-well plates with flat bottom (Eppendorf, Hamburg, Germany), in a 100 μL volume per well, and incubated at 37°C.
(§3) […] The control wells were treated only with serum free medium (5% serum final).
(§4) For the evaluation of the in vitro antiproliferative activity of compounds, the cell viability was determined by MTT assay (3-(4,5-dimethylthiazol-2-yl)-2,5-diphenyl-tetrazolium bromide) obtained from Duchefa Biochemie (Haarlem, Netherlands).
(§5) 22 µL of MTT solution (5 mg/mL in PBS, 0.5 mg/mL final) was added to each well and after 2 h incubation at 37°C, the supernatant was removed. […] Average background absorbance (DMSO-Ethanol) was subtracted from absorbance values of control and treated wells, and cell viability was determined relative to untreated (control) wells where cell viability was arbitrarily set to 100%. […] The experiments were done in triplicate and each experiment was repeated three times.

[2] = tested on: U87MG human malignant glioma cells; assay: as above; format: cell-based
Protocol: as §1, §2, §3, §4, §5

[3] = tested on: A549 human lung cancer cells; assay: as above; format: cell-based
Protocol: as §1, §2
(§6) In the wash out experiment, cells were incubated with the compounds (5% serum final) for 30 min, then they were washed out, and additionally incubated in growth medium (5% serum final) up to 72 h. The control wells were treated only with serum free medium (5% serum final).
as §4, §5

[4] = tested on: SK-OV-3 human ovarian cancer cells; assay: as above; format: cell-based
Protocol: as §1, §2, §6, §4, §5

[5] = tested on: SK-MEL-28 cells; assay: In vitro antiproliferative activity in the presence of MMP-2 inhibitor; format: cell-based, human; details: 16 h pre-incubation with MMP-2 inhibitor 10 µM, then 72 h continuous treatment, 5% serum final; average ± SD, triplicate; read-out: IC50 MMP-2 inhibitor + Treatment 72 h SK-MEL-28 (αVβ3 +)
Protocol: as §4
(§7) 22 µL of MTT solution (5 mg/mL in PBS, 0.5 mg/mL final) was added to each well and after 2 h incubation at 37°C, the supernatant was removed. The precipitated purple formazan crystals were dissolved in 100 µL of a 1:1 solution of dimethylsulfoxide (DMSO; Merck, St. Louis, MO, United States): 96% Ethanol (Molar Chemicals Kft., Halásztelek, Hungary) and the absorbance was measured after 15 min at λ = 570 nm by using microplate reader CLARIOstar Plus (BMG Labtech, Ortenberg, Germany). Average background absorbance (DMSO-Ethanol) was subtracted from absorbance values of control and treated wells, and cell viability was determined relative to untreated (control) wells where cell viability was arbitrarily set to 100%. Absorbance values of treated samples were normalized versus untreated control samples and interpolated by nonlinear regression analysis with GraphPad Prism 6 software (GraphPad, La Jolla, San Diego, CA, United States) to generate sigmoidal dose-response curves from which the 50% inhibitory concentration (IC50) values of the compounds were calculated and presented as nanomolar (nM) units. The experiments were done in triplicate and each experiment was repeated three times.
(§8) The conjugate 2 and the free MMAE were tested in presence of the MMP-2 inhibitor cis-9-octadecenoyl-N-hydroxylamine (Merck) dissolved in DMSO ([You et al., 2018]). The three αVβ3 integrin and MMP-2 overexpressing cancer cell lines (U87MG, SK-MEL-28, […]) were seeded with serum containing medium ([Ellijimi et al., 2018]; [Shim et al., 2019]) and, after 8 h, were washed-out. Then, 100 µL per well of MMP-2 inhibitor (10 µM final concentration) were added and cells were incubated for 16 h, prior to the treatment. Later, the conjugate 2 and free MMAE were dissolved in 10% serum containing medium and added to reach the same concentrations evaluated in the previous test in a final volume of 100 µL per well and incubated (5% serum final) continuously for 72 h of the treatment. The experiments were performed in triplicate.

[6] = tested on: SK-OV-3 cells; assay: as above; format: cell-based, human; details: 16 h pre-incubation with MMP-2 inhibitor 10 µM, then 72 h continuous treatment, 5% serum final; average ± SD, triplicate; read-out: IC50 MMP-2 inhibitor + Treatment 72 h SK-OV-3 (αVβ3 +)
Protocol: as §4, §7, §8

[7] = tested on: U87MG cells; assay: as above; format: cell-based, human; details: 16 h pre-incubation with MMP-2 inhibitor 10 µM, then 72 h continuous treatment, 5% serum final; average ± SD, triplicate; read-out: IC50 MMP-2 inhibitor + Treatment 72 h U87MG (αVβ3 +)
Protocol: as §4, §7, §8

[8] = MTT, 72 h continuous treatment, no washout, 5% serum final, triplicate, repeated three times
[9] = relative potency = ratio of IC50 of 2 vs MMAE, 72 h no washout

CC[C@H](C)[C@@H]([C@@H](CC(=O)N1CCC[C@H]1[C@H](OC)[C@@H](C)C(=O)N[C@H](C)[C@@H](O)c1ccccc1)OC)N(C)C(=O)[C@@H](NC(=O)[C@H](C(C)C)N(C)C(=O)OCc1ccc(NC(=O)CNC(=O)[C@H](CC(C)C)NC(=O)[C@@H]2CCCN2C(=O)CNC(=O)CCc2cn(CCOCCOCCOCCOCC(=O)NCc3ccc(CN4C(=O)[C@H]5CC(=O)N[C@H](C(=O)O)CC(=O)NCC(=O)N[C@@H](CCCNC(=N)N)C(=O)NC[C@H]4C(=O)N5)cc3)nn2)cc1)C(C)C [compound 2, cyclo[DKP-isoDGR]-PEG4-GPLG-PABC-MMAE]
IC50 [1, 8]: 70.4 ± 7.1 nM
RP [SMDC (2)/MMAE] SK-MEL-28 [1, 9]: 29.49
IC50 [2, 8]: 7.5 ± 0.9 nM
RP [SMDC (2)/MMAE] U87MG [2, 9]: 33.30
IC50 ([3]; MTT, 72 h continuous treatment, no washout, 5% serum final, αVβ3 low expressing line, triplicate, repeated three times): 20.8 ± 1.8 nM
RP [SMDC (2)/MMAE] A549 [3, 9]: 302.32
IC50 [4, 8]: 3.7 ± 0.3 nM
RP [SMDC (2)/MMAE] SK-OV-3 [4, 9]: 120.52
IC50 [5]: 28.7 nM
IC50 [6]: 3.2 nM
IC50 [7]: 7.4 nM
